Where two headings read alike, the source gives them in different places.
Key:
[1] = rabbits; cited from earlier work
5-HT2A Receptor [2] = molecular target: T1, 5-HT2A Receptor (Rattus norvegicus, UniProt P14842); test: 5-HT2 functional assay: [Ca2+]i mobilization (FLIPR); format: cell-based
T1 construct: endogenous in cells; host or cells: A7r5 rat vascular smooth muscle cells
Description: The receptor-mediated mobilization on intracellular calcium ([Ca2+]i) was studied using the Fluorescence Imaging Plate Reader (FLIPR) instrument. Rat vascular smooth muscle cells, A7r5, were grown in a normal media of DMEM/10% FBS and 10 μg/mL gentamycin. Confluent cell monolayers were trypsinized, pelleted, and re-suspended in normal media. Cells were seeded in a 50 μL volume at a density of 20,000 cells/well in a black wall, 96-well tissue culture plate and grown for 2 days.
On the day of the experiment, one vial of FLIPR Calcium Assay Kit dye was re-suspended in 50 mL of a FLIPR buffer consisting of Hank's Balanced Salt Solution (HBSS), 20 mM HEPES, and 2.5 mM probenecid, pH 7.4. […]
The compound plate and cell plate were placed in the FLIPR instrument. At the beginning of an experimental run, a signal test was performed to check the basal fluorescence signal from the dye-loaded cells and the uniformity of the signal across the plate. The basal fluorescence was adjusted between 8000-12000 counts by modifying the exposure time, the camera F-stop, or the laser power. […] Fluorescence data were collected in real-time at 1.0 sec intervals for the first 60 secs and at 6.0 sec intervals for an additional 120 secs. Responses were measured as peak fluorescence intensity minus basal and where appropriate were expressed as a percentage of a maximum 5-HT-induced response. […]

5-HT2A Receptor [3] = test: 5-HT2 receptor binding assay ([125I]DOI competition); set-up: species or system rat or human; settings: inhibition of [125I]DOI binding, cerebral cortex homogenates
Description: Aliquots of post mortem rat or human cerebral cortex homogenates (400 μL) dispersed in 50 mM Tris-HCl buffer (pH 7.4) are incubated with [125I]DOI (80 pM final) in the absence or presence of methiothepin (10 μM final) to define total and non-specific binding, respectively, in a total volume of 0.5 mL. The assay mixture is incubated for 1 hour at 23° C. in polypropylene tubes and the assays terminated by rapid vacuum filtration over Whatman GF/B glass fiber filters previously soaked in 0.3% polyethyleneimine using ice-cold buffer. Test compounds (at different concentrations) are substituted for methiothepin. Filter-bound radioactivity is determined by scintillation spectrometry on a beta counter. The data are analyzed using a non-linear, iterative curve-fitting computer program (Bowen et al. 1995) to determine the compound affinity parameter. The concentration of the compound needed to inhibit the [125I]DOI binding by 50% of the maximum is termed the IC50 value.

5-HT2A receptor [4] = molecular target: 5-HT2A receptor (Homo sapiens, UniProt P28223); settings: cited from earlier work
[5] = drug discrimination studies; cited from earlier work
5-HT2 receptors = settings: cited from earlier work
5-HT2C receptor = molecular target: T2, 5-HT2C receptor (Homo sapiens, UniProt P28335); settings: cited from earlier work
T2 sequence (P28335 33-458): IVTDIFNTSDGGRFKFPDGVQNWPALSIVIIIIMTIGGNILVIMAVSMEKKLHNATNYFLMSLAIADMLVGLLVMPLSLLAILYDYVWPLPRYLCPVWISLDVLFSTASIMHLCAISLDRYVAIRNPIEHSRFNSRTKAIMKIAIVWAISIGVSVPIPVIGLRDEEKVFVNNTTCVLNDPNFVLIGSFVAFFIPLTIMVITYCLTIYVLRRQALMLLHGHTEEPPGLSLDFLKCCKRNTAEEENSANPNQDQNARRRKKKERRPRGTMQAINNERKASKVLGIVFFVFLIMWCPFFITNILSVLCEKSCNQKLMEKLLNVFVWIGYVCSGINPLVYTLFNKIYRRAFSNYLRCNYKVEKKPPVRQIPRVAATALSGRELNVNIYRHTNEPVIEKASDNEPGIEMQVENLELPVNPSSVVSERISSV

[6] = monkey; due to its α1A receptor activity; cited from earlier work

T1 sequence (P14842 whole entry): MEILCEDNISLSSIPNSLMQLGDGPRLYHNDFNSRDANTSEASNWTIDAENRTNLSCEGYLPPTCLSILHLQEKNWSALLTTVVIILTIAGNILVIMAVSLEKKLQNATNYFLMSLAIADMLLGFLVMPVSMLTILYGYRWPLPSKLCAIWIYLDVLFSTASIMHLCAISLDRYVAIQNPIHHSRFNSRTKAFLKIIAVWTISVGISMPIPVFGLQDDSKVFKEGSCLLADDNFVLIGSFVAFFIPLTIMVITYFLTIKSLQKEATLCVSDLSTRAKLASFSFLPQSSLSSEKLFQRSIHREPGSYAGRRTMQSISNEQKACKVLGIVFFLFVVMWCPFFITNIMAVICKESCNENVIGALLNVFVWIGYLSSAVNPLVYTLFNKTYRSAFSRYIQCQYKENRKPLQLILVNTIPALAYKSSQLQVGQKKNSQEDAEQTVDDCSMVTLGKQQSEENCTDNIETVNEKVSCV
Chain of 5-HT2A receptor (P28223 whole entry): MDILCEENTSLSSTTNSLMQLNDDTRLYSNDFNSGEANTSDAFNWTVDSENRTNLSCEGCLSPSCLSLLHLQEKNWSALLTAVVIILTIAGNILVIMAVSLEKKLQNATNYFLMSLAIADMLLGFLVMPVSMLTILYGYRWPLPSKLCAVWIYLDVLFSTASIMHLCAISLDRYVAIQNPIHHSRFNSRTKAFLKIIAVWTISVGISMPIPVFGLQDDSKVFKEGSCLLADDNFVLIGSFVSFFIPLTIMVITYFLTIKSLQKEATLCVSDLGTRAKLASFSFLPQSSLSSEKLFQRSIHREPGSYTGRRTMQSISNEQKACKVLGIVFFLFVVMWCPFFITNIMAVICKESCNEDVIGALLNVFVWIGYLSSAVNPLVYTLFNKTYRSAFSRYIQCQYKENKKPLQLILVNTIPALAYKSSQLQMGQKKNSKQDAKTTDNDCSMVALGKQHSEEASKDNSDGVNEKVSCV

Compound: CCCN(CCC)C1CCc2cccc(O)c2C1 (stereo not drawn) [Compound 8-OH-DPAT, 8-hydroxy-2-(di-n-propylamino)tetralin]
- effect on IOP [1]: reduces IOP

Compound: COc1cc(CC(C)N)c(OC)cc1I (stereo not drawn) [DOI]
- Efficacy (Emax, %) (5-HT2A Receptor [2]; A7r5 cells, percentage of a maximum 5-HT-induced response): 31%
- EC50 (5-HT2A Receptor [2]; A7r5 rat vascular smooth muscle cells, [Ca2+]i mobilization): 30.2 nM
- IC50 (5-HT2A Receptor [3]): 0.33 nM

Compound: COc1cc(Br)c2c(c1CC(C)N)CCO2 (stereo not drawn) [2-(7-bromo-5-methoxy-2,3-dihydro-benzofuran-4-yl)-1-methylethylamine]
- affinity for the 5-HT2A receptor (5-HT2A receptor [4]): high affinity
- generalization to LSD [5]: generalize to LSD

Compound: COc1cc(CCN)c2c(c1OC)OCC2 [2-(6,7-Dimethoxy-2,3-dihydro-benzofuran-4-yl)-ethylamine]
- affinity for 5-HT2 receptors (5-HT2 receptors): have affinity

Compound: CC(N)Cc1cccc2occc12 (stereo not drawn) [2-benzofuran-4-yl-1-methylethylamine]
- agonist activity at the 5-HT2C receptor (5-HT2C receptor): agonist activity

Compound: COc1ccccc1N1CCN(CCCNc2c(C)c(=O)n(C)c(=O)n2C)CC1 [5-methylurapidil]
- effect on IOP [6]: lowers IOP

Source: patent US20050171190A1, “Substituted 5-chroman-5-YL-ethylamine compounds and their use for the treatment of glaucoma” (Alcon, Inc., priority 2002, published 2005)
